Source: ChEMBL document CHEMBL1201862, “PubChem BioAssay data set” (2004)
Activity calls are given as the source filed them.

How the values were obtained:
[1] = inhibitors of firefly luciferase expression or activity, dose response, H4 neuroglioma cells, luminescence (AID 1990); assay type: functional, cell-based
[2] = biological target: SUMO-activating enzyme (Homo sapiens, UniProt Q9UBT2); experiment: inhibitors of in vitro SUMOylation cascade, primary screen, biochemical, HTRF, uHTS (AID 2006); assay type: protein-complex assay
SUMO-activating enzyme, sequence (Q9UBE0 whole entry): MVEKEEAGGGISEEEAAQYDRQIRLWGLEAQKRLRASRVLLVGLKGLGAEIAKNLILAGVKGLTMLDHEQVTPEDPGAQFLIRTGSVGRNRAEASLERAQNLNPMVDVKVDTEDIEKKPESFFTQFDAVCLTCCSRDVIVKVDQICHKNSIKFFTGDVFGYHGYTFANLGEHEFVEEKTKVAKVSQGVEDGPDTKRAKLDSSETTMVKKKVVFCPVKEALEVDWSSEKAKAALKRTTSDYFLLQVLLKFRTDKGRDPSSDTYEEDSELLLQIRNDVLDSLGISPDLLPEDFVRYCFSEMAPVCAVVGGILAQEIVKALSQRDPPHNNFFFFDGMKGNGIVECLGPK
SUMO-activating enzyme, sequence (Q9UBT2 whole entry): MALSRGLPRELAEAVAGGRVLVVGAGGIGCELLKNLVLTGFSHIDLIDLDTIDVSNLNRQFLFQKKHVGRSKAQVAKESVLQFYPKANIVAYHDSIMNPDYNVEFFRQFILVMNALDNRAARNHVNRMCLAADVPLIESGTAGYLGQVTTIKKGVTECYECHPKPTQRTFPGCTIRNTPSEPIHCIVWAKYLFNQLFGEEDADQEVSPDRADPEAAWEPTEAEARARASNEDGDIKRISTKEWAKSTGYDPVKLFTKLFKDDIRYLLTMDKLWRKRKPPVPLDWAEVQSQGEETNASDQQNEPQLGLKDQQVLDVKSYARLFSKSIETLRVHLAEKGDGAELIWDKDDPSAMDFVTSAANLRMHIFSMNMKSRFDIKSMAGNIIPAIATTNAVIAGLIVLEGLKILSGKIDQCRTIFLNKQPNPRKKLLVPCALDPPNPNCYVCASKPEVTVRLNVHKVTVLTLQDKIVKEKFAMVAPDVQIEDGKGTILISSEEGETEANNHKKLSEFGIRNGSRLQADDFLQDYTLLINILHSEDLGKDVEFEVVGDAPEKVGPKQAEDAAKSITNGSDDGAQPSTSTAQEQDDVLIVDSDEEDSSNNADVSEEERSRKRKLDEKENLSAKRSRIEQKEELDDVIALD

[3] = biological target: Histone-lysine N-methyltransferase NSD2 (Homo sapiens, UniProt O96028); assay type: biochemical
[4] = tested on: Vero; experiment: Vero cell cytotoxicity, cytotoxicity control for flavivirus capping enzyme inhibitors (AID 588742); assay type: functional; details: Chlorocebus sabaeus
[5] = biological target: RAC-alpha serine/threonine-protein kinase (Homo sapiens, UniProt P31749); assay type: functional;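 note: AKT1 affinity measured as one member of a kinome-wide kinase profiling panel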
[6] = biological target: Aurora kinase A (Homo sapiens, UniProt O14965); assay type: functional;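 note: value from the Navigating the Kinome kinase panel profiling, panel entry STK6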
[7] = biological target: Inhibitor of nuclear factor kappa-B kinase subunit epsilon (Homo sapiens, UniProt Q14164); experiment: Navigating the Kinome. Panel member name: IKBKE; assay type: functional
[8] = biological target: Casein kinase I isoform delta (Homo sapiens, UniProt P48730); assay type: functional;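 note: measured as one member (CSNK1D) of a kinome panel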
[9] = biological target: Mitogen-activated protein kinase kinase kinase kinase 5 (Homo sapiens, UniProt Q9Y4K4); assay type: functional;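 note: measured as one member of a kinome-spanning kinase panel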
Mitogen-activated protein kinase kinase kinase kinase 5, sequence (Q9Y4K4 whole entry): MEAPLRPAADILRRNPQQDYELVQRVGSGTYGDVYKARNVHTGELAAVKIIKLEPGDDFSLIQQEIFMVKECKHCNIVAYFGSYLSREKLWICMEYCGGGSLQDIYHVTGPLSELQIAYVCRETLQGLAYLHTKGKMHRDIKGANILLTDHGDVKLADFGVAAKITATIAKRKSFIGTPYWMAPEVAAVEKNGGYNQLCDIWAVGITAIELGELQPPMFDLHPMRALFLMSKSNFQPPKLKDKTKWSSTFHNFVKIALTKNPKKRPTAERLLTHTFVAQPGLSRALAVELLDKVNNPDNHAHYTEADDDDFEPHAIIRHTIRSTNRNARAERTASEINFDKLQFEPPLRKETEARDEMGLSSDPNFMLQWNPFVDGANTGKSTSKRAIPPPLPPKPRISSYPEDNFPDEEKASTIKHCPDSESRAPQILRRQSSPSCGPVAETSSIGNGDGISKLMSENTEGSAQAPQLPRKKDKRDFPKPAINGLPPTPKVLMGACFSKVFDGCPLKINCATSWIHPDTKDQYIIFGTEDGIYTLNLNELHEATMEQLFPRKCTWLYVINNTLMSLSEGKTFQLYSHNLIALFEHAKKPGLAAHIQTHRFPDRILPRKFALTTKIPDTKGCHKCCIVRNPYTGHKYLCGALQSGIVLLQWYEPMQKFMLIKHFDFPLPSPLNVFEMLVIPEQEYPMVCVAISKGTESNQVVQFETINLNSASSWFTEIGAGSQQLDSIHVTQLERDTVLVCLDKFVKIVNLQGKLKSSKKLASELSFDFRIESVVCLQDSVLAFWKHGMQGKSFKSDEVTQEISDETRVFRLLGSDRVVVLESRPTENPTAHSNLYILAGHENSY

[10] = biological target: Serine/threonine-protein kinase 3 (Homo sapiens, UniProt Q13188); assay type: functional;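 note: measured as one member of a kinome-wide kinase panel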
[11] = biological target: Serine/threonine-protein kinase BRSK1 (Homo sapiens, UniProt Q8TDC3); assay type: functional;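 note: measured within a kinome-wide kinase panel, with the target listed as KIAA1811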
[12] = biological target: Aurora kinase B (Homo sapiens, UniProt Q96GD4); assay type: functional
[13] = biological target: cGMP-dependent protein kinase 1 (Homo sapiens, UniProt Q13976); assay type: functional;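 note: value from a kinome panel screen with PRKG1 as the panel member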
[14] = biological target: Tyrosine-protein kinase FRK (Homo sapiens, UniProt P42685); assay type: functional;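 note: FRK tested as one member of a kinome panel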
[15] = biological target: Vascular endothelial growth factor receptor 3 (Homo sapiens, UniProt P35916); assay type: functional;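 note: value from a kinome-wide profiling panel, with FLT4 as the panel member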
[16] = biological target: Serine/threonine-protein kinase DCLK1 (Homo sapiens, UniProt O15075); assay type: functional;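 note: affinity for DCLK1 (listed as DCAMKL1) measured as one member of a kinome-wide kinase profiling panel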
Serine/threonine-protein kinase DCLK1, sequence (O15075 whole entry): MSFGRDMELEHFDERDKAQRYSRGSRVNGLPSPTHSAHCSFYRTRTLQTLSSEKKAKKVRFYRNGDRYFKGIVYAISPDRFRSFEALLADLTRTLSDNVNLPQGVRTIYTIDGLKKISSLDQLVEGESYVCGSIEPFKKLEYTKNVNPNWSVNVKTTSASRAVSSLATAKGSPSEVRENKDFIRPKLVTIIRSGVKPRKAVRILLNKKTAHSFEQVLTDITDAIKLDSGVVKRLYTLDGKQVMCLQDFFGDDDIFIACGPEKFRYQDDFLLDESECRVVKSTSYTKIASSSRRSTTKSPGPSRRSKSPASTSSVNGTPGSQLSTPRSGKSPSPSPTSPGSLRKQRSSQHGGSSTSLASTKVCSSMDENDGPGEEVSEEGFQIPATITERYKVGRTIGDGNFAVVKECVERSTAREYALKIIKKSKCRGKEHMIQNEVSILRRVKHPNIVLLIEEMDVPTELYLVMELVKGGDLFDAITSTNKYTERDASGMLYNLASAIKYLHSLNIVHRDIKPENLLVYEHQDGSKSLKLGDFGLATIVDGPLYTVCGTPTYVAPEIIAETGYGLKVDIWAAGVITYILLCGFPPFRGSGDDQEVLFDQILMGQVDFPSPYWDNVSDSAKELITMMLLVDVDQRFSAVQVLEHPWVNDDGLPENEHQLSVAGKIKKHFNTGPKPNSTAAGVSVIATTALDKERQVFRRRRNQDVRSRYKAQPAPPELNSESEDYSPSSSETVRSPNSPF

[17] = biological target: Testis-specific serine/threonine-protein kinase 1 (Homo sapiens, UniProt Q9BXA7); assay type: functional
[18] = biological target: Serine/threonine-protein kinase pim-1 (Homo sapiens, UniProt P11309); assay type: functional
[19] = biological target: Mitogen-activated protein kinase kinase kinase kinase 2 (Homo sapiens, UniProt Q12851); assay type: functional;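 note: measured as one member of a kinome-wide kinase panel, with MAP4K2 as the panel entry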
Mitogen-activated protein kinase kinase kinase kinase 2, sequence (Q12851 whole entry): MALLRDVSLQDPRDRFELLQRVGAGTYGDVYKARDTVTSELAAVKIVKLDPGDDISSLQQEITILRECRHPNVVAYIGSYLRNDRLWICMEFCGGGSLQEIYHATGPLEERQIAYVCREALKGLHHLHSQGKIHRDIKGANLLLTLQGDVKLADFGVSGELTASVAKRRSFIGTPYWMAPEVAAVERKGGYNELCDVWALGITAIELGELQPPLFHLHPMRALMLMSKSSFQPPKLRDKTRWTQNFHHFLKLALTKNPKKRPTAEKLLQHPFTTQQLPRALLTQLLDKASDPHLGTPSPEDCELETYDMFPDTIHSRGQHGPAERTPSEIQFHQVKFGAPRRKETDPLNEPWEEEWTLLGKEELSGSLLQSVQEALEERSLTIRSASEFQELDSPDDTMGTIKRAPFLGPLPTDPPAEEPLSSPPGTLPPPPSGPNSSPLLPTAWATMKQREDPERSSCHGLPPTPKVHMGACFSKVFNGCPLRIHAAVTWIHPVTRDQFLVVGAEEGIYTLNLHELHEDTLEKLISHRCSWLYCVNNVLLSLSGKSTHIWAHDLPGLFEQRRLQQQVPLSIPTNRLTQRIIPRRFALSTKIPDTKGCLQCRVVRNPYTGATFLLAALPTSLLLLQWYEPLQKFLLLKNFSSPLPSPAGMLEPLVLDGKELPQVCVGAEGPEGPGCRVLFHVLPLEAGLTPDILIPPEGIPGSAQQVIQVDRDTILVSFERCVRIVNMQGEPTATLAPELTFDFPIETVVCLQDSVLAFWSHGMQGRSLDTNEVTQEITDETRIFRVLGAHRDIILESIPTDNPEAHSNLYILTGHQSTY

[20] = biological target: Cyclin-dependent kinase 9 (Homo sapiens, UniProt P50750); assay type: functional;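 note: value from the CDK9 entry of a kinome-spanning kinase panel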
Cyclin-dependent kinase 9, sequence (P50750 whole entry): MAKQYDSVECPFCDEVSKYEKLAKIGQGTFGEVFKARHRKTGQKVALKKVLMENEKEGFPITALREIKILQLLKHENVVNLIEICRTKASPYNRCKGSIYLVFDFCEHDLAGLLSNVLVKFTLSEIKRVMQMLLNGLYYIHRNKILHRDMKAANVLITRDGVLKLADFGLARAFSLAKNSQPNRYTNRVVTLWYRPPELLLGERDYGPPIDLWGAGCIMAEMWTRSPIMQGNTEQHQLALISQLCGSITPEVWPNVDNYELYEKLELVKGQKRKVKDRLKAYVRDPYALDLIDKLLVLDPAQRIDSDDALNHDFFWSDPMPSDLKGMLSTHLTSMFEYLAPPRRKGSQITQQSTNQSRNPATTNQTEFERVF

[21] = biological target: Cell division cycle 7-related protein kinase (Homo sapiens, UniProt O00311); assay type: functional;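 note: value obtained from a kinome-wide kinase panel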
[22] = biological target: MAP kinase-activated protein kinase 3 (Homo sapiens, UniProt Q16644); assay type: functional;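 note: value comes from a kinome-wide profiling panel in which MAPKAPK3 is one of the panel members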
[23] = biological target: Leucine-rich repeat serine/threonine-protein kinase 2 (Homo sapiens, UniProt Q5S007); assay type: functional;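 note: value from a broad kinome-wide panel profiling study in which LRRK2 was one of the kinases tested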
[24] = biological target: Tyrosine-protein kinase Blk (Homo sapiens, UniProt P51451); assay type: functional;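 note: obtained as one member of a kinome-wide kinase assay panel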
[25] = biological target: Serine/threonine-protein kinase pim-2 (Homo sapiens, UniProt Q9P1W9); assay type: functional;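 note: value comes from a broad kinase panel profiling study in which PIM2 was one of the panel members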
[26] = biological target: Tyrosine-protein kinase BTK (Homo sapiens, UniProt Q06187); assay type: functional
Tyrosine-protein kinase BTK, sequence (Q06187 whole entry): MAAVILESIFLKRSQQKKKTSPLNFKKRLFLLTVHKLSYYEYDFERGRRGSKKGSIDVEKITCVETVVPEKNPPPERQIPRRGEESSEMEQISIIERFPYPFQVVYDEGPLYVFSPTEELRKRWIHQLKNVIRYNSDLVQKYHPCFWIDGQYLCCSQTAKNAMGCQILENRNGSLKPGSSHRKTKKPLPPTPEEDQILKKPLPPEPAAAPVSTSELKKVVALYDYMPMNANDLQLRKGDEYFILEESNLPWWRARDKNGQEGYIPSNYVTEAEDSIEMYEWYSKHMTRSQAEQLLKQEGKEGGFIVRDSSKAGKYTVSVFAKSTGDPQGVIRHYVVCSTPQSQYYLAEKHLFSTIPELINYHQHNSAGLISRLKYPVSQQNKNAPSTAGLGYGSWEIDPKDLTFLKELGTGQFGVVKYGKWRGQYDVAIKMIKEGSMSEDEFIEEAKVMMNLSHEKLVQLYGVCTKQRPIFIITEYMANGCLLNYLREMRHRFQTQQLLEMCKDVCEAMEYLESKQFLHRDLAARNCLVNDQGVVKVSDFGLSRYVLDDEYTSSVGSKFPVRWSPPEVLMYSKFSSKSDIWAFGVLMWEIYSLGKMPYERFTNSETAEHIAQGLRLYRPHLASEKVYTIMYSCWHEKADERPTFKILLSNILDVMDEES

[27] = biological target: Mitogen-activated protein kinase 1 (Homo sapiens, UniProt P28482); assay type: functional
[28] = biological target: High affinity nerve growth factor receptor (Homo sapiens, UniProt P04629); assay type: functional;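 note: NTRK1 tested as one member of a kinome-wide profiling panel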
[29] = biological target: Ribosomal protein S6 kinase beta-1 (Homo sapiens, UniProt P23443); assay type: functional;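 note: measured as one member of a kinome-wide profiling panel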
[30] = biological target: SRSF protein kinase 1 (Homo sapiens, UniProt Q96SB4); assay type: functional;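 note: measured as one member of a kinome-wide kinase profiling panel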
[31] = biological target: Tyrosine-protein kinase ABL1 (Homo sapiens, UniProt P00519); assay type: functional
[32] = biological target: Casein kinase II subunit alpha (Homo sapiens, UniProt P68400); assay type: functional
[33] = biological target: Casein kinase I isoform gamma-1 (Homo sapiens, UniProt Q9HCP0); assay type: functional;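 note: measured as the CSNK1G1 member of a kinome profiling panel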
[34] = biological target: Tyrosine-protein kinase Lyn (Homo sapiens, UniProt P07948); assay type: functional;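 note: lyn as one member of a kinase panel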
[35] = biological target: Dual specificity tyrosine-phosphorylation-regulated kinase 3 (Homo sapiens, UniProt O43781); assay type: functional;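 note: measured as one member of a broad kinase panel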
Dual specificity tyrosine-phosphorylation-regulated kinase 3, sequence (O43781 whole entry): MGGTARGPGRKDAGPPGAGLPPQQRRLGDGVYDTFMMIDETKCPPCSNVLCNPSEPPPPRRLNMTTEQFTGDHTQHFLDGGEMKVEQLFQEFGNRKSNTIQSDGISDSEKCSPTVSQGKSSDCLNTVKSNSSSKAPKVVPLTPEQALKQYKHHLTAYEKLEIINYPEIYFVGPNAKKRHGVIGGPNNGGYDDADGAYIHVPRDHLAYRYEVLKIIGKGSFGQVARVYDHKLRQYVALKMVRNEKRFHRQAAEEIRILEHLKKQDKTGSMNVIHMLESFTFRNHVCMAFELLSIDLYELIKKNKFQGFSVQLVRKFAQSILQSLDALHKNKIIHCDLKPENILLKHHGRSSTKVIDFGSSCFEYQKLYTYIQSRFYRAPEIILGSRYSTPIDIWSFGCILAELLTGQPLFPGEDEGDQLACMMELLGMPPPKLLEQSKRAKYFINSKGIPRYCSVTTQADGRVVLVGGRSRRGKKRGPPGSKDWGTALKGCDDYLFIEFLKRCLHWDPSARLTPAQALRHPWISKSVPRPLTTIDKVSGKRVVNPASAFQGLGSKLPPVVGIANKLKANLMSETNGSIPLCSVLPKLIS

[36] = biological target: Hepatocyte growth factor receptor (Homo sapiens, UniProt P08581); assay type: functional;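 note: kinase panel profiling across the kinome, with MET as the panel member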
[37] = biological target: Dual specificity protein kinase CLK2 (Homo sapiens, UniProt P49760); assay type: functional
[38] = biological target: Serine/threonine-protein kinase 17A (Homo sapiens, UniProt Q9UEE5); assay type: functional
[39] = biological target: 3-phosphoinositide-dependent protein kinase 1 (Homo sapiens, UniProt O15530); assay type: functional;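 note: value comes from the Navigating the Kinome panel, PDPK1 member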
[40] = biological target: Vascular endothelial growth factor receptor 2 (Homo sapiens, UniProt P35968); assay type: functional
[41] = biological target: Macrophage colony-stimulating factor 1 receptor (Homo sapiens, UniProt P07333); assay type: functional;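 note: value comes from the Navigating the Kinome screening panel, CSF1R member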
[42] = biological target: Protein kinase C iota type (Homo sapiens, UniProt P41743); assay type: functional;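 note: measured within a kinome-wide kinase panel, PRKCI as panel member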
[43] = biological target: Proto-oncogene tyrosine-protein kinase ROS (Homo sapiens, UniProt P08922); assay type: functional;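 note: ROS1 tested as one member of a kinome-wide kinase panel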
[44] = biological target: Serine/threonine-protein kinase PLK4 (Homo sapiens, UniProt O00444); assay type: functional;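 note: PLK4 measured as one member of a kinome-wide kinase profiling panel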
[45] = biological target: MAP kinase-activated protein kinase 2 (Homo sapiens, UniProt P49137); assay type: functional;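 note: measured as one member of a kinome-wide kinase panel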
[46] = inhibitors of intracellular T. cruzi replication, confirmation, NIH3T3 host cells, beta-gal luminescence (AID 2044); assay type: functional, cell-based;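 note: intracellular parasites grown in NIH/3T3 mouse fibroblasts as host cells; luminescent beta-galactosidase reporter signal from transgenic T. cruzi replicating inside host cells; inhibitors lower the luminescence signal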
[47] = Fluorescence-based biochemical high throughput screening dose response assay to identify inhibitors of Crimean-Congo Hemorrhagic Fever (CCHF) viral ovarian tumor domain protease (vOTU): Pep-AMC substrate.

Structure (SMILES): NS(=O)(=O)c1ccc(NC2=CC(=O)C(=O)c3ccccc32)cc1
- EC50 [1]: > 120000 nM (not active)
- IC50 [2]: 9540 nM (active)
- AC50 [3]: 3100 nM (active)
- CC50 [4]: 11800 nM (active)

Structure (SMILES): Clc1cc(-c2c[nH]c3ncccc23)nc(NC2CCCCC2)n1
- Ki [5]: > 7940 nM (inactive)
- Ki [6]: > 1580 nM (inactive)
- Ki [7]: > 3160 nM (inactive)
- Ki [8]: 63.1 nM (active)
- Ki [9]: > 2000 nM (inactive)
- Ki [10]: > 1580 nM (inactive)
- Ki [11]: > 10000 nM (inactive)
- Ki [12]: > 6310 nM (inactive)
- Ki [13]: 794 nM (active)
- Ki [14]: > 2510 nM (inactive)
- Ki [15]: 251 nM (active)
- Ki [16]: > 10000 nM (inactive)
- Ki [17]: > 1580 nM (inactive)
- Ki [18]: > 5010 nM (inactive)
- Ki [19]: > 1260 nM (inactive)
- Ki [20]: > 794 nM (inactive)
- Ki [21]: 0.501 nM (active)
- Ki [22]: > 10000 nM (inactive)
- Ki [23]: > 2510 nM (inactive)
- Ki [24]: > 1580 nM (inactive)
- Ki [25]: > 2000 nM (inactive)
- Ki [26]: > 3980 nM (inactive)
- Ki [27]: 398 nM (active)
- Ki [28]: 2000 nM (active)
- Ki [29]: 2510 nM (active)
- Ki [30]: 794 nM (active)
- Ki [31]: > 631 nM (inactive)
- Ki [32]: 398 nM (active)
- Ki [33]: 126 nM (active)
- Ki [34]: > 1580 nM (inactive)
- Ki [35]: 7.94 nM (active)
- Ki [36]: > 3160 nM (inactive)
- Ki [37]: > 1260 nM (inactive)
- Ki [38]: 1000 nM (active)
- Ki [39]: > 3980 nM (inactive)
- Ki [40]: 2510 nM (active)
- Ki [41]: > 1580 nM (inactive)
- Ki [42]: > 5010 nM (inactive)
- Ki [43]: > 2000 nM (inactive)
- Ki [44]: > 3980 nM (inactive)
- Ki [45]: > 7940 nM (inactive)

Structure (SMILES): CCC(=O)NC(c1ccccc1OC)c1ccc2cccnc2c1O (configuration not stated)
- EC50 [46]: 951 nM (active)

Structure (SMILES): CC(C)N(C(=O)Nc1ccc2nsnc2c1)C(C)C
- IC50 [47]: > 4250 nM (active)
